Measurements: US20050239780A1, “Tetrahydropyran derivative” (priority 2002, published 2005)
Where two headings read alike, the source gives them in different places.

Columns and labels:
[1] = test system: apo B-related lipoprotein secretion in Hep G2 cells; assay: Measurement of apo B-related lipoprotein secretion in liver cells (Hep G2, enzyme immunoassay); format: cell-based, human; conditions: culture supernatant
Description: 1. Measurement of Apo B-Related Lipoprotein Secretion in Liver Cells
Hep G2 cells were cultured in a 96-well plate using a 10% fetal bovine serum-containing Dulbecco's modified Eagle's medium (to be referred to as “10% FBS-containing DMEM” hereinafter). The medium was exchanged with a 10% FBS-containing DMEM that contained a DMSO solution of the test compound (DMSO final concentration 0.1%), and the cells were further incubated therein for 18 hours to obtain the culture supernatant. The culture supernatant obtained from a 10% FBS-containing DMEM that contained DMSO alone (final concentration 0.1%) was used as the control. The apo B-related lipoprotein produced in the culture supernatant was determined through an enzyme immunoassay in the manner mentioned below.
A solution of anti-human apolipoprotein B monoclonal antibody (4 μg/ml) was dispensed in 100 μl portions into a 96-well immunoassay plate and kept at 4° C. for 18 hours. Each well was washed three times with a phosphate buffer to which had been added 0.1% Tween 20 (to be referred to as “PBS-T” hereinafter), and 300 μl of a 4-fold diluted immune blocker “Block Ace” was added thereto and kept at 37° C. for 1 hour. The aforementioned culture supernatant was added to it, and kept at 37° C. for 3 hours. This was washed three times with PBS-T, and then 100 μl of a solution of caprine anti-human apolipoprotein B polyclonal antibody (2,000-fold dilution) was added to it and kept at 37° C. for 1 hour. This was washed three times with PBS-T, and then 100 μl of a solution of alkaline phosphatase-labeled anti-caprine IgG antibody (2,000-fold dilution) was added thereto and kept at 37° C. for 1 hour. This was washed four times with PBS-T, once with PBS and then with a carbonate buffer (pH 9.5), and 100 μl of a solution of an alkaline phosphatase substrate was added thereto and kept at room temperature for 5 minutes. A 50 μl portion of 0.2 M sodium hydroxide was added to it to stop the reaction, and the absorbance at 405 nm was measured. From the calibration curve based on a standard, human low-density lipoprotein, the absolute amount of apo B-related lipoprotein was obtained.

[2] = test system: plasma lipid in high-cholesterol feed-loaded rats; assay: Pharmacological test on high-cholesterol feed-loaded rats; format: in vivo; conditions: high-cholesterol feed-loaded male SD rats, oral once a day for 7 days, relative to control group; for ED50: Rattus norvegicus, 168 h, read-out: ED50 non-HDL cholesterol lowering effect
Description: 3. Pharmacological Test on High-Cholesterol Feed-Loaded Rats
The influence of test compounds on plasma lipid in vivo was investigated with high-cholesterol feed-loaded rats. A 0.5% methyl cellulose suspension containing a test compound was forcedly orally administered to male SD rats loaded with high-cholesterol feed (1.5% cholesterol, 10% coconut oil, 0.5% cholic acid), once a day for continuous 7 days. After the final administration, the rats were fed with nothing, and after 6 hours, their blood was collected under anesthetization with diethyl ether. Using an automatic analyzer, Hitachi's Model 7250, the total cholesterol, HDL cholesterol and triglyceride in plasma were measured. Non-HDL cholesterol was obtained by subtracting HDL cholesterol from total cholesterol. The non-HDL cholesterol lowering effect of the test compound, relative to the control group, was represented by ED50.

[3] = test system: plasma lipid in KK-Ay mice; assay: Pharmacological test in KK-Ay mice; format: in vivo, male KK-Ay mice; conditions: oral once a day for 7 days, relative to control group
Description: The influence of test compounds on plasma lipid in vivo was investigated with KK-Ay mice. A 0.5% methyl cellulose suspension containing a test compound was forcedly orally administered to male KK-Ay mice once a day for continuos 7 days. After the final administration, the mice were fed with nothing, and after 6 hours, their blood was collected under anesthetization with diethyl ether. Using the automatic analyzer, Hitachi's Model 7250, the total cholesterol, HDL cholesterol and triglyceride in plasma were measured. Non-HDL cholesterol was obtained by subtracting HDL cholesterol from total cholesterol. The plasma lipid lowering effect of the test compound was expressed in percentage relative to the control group.

[4] = test system: VLDL secretion in vivo in rats; assay: Measurement of blood cholesterol and triglyceride in rats (VLDL secretion, Triton WR-1339); conditions: male SD rats, oral, Triton WR-1339 400 mg/kg i.v. after 1 hour, blood after 4 hours; for ED50: Rattus norvegicus
Description: 2. Measurement of Blood Cholesterol and Triglyceride in Rats
The influence of test compounds on VLDL secretion in vivo in rats was investigated. A 0.5% methyl cellulose suspension containing a test compound was orally administered to male SD rats. After 1 hour, a physiological saline solution of Triton WR-1339 (corresponding to 400 mg/kg) was injected through the caudal vein. After 4 hours, their blood was collected under anesthetization with diethyl ether. The total cholesterol and triglyceride in blood were measured by the use of “Cholesterol C Test Wako” and “Triglyceride G Test Wako” (both from Wako Pure Chemical Industries), respectively. The rats orally administered with the 0.5% methyl cellulose solution and then intravenously injected with physiological saline were used as a normal group, and those orally administered with the 0.5% methyl cellulose solution and then intravenously injected with physiological saline of Triton WR-1339 were used as a control group. The difference in the total cholesterol (TC) or triglyceride (TG) in the serum between the control group and the normal group was defined as the amount of secretion per hour, and the lowering effect in the amount of secretion of the test compound was represented by ED50.

[5] = Homo sapiens, HepG2, 18 hours incubation
[6] = read-out: ED50 TC (total cholesterol secretion lowering effect)
[7] = read-out: ED50 TG (triglyceride secretion lowering effect)

| Structure (SMILES) | IC50 ([1]; 18 hours incubation) | ED50 non-HDL cholesterol lowering effect [2] | Lowering rate TG ([3]; dose 3 mg/kg) | Lowering rate non-HDL ([3]; dose 3 mg/kg) | ED50 TC (total cholesterol secretion lowering effect) [4] | ED50 TG (triglyceride secretion lowering effect) [4] | Lowering rate TG ([3]; dose 10 mg/kg) | Lowering rate non-HDL ([3]; dose 10 mg/kg) | IC50 [1, 5] | ED50 [2] | ED50 [4, 6] | ED50 [4, 7] |
| --- | --- | --- | --- | --- | --- | --- | --- | --- | --- | --- | --- | --- |
| Cc1nc2c(c(C)c1CCC(=O)O)c1ccccc1n2Cc1ccc([C@@H](C(=O)NCc2cccc(F)c2)C2CCOCC2)cc1 [Example 117] | 2.2 nM | 0.032 mg/kg | 98% | 98% |  |  |  |  |  |  |  |  |
| Cc1nc2c(c(C)c1CCC(=O)O)c1ccccc1n2Cc1ccc([C@@H](C(=O)N2CC=CCC2)C2CCOCC2)cc1 [Example 40] | 12 nM | <0.1 mg/kg | 81% | 74% | 0.47 mg/kg | 0.28 mg/kg |  |  |  |  |  |  |
| Cc1nc2c(c(C)c1CCC(=O)O)c1ccc(F)cc1n2Cc1ccc([C@@H](C(=O)NCc2ccccc2)C2CCOCC2)cc1 [Example 24] |  | 0.040 mg/kg | 95% | 96% | 0.21 mg/kg | 0.22 mg/kg |  |  |  |  |  |  |
| Cc1nc2c(c(C)c1CCC(=O)O)c1ccccc1n2Cc1ccc([C@@H](C(=O)N2CCN(C3CCC3)CC2)C2CCOCC2)cc1 [Example 57] | 8 nM | 0.88 mg/kg | 89% | 86% | 0.74 mg/kg | 0.56 mg/kg |  |  |  |  |  |  |
| Cc1cc(C)c2c3ccccc3n(Cc3ccc([C@@H](C(=O)N[C@@H](CO)c4ccccc4)C4CCCC4)cc3)c2n1 [Implitapide, reference compound] |  | 1.0 mg/kg |  |  | 1.0 mg/kg | 1.1 mg/kg | 15% | 14% |  |  |  |  |
| Cc1nc2c(c(C)c1CCC(=O)O)c1ccccc1n2Cc1ccc([C@@H](C(=O)N2CCN(c3ccccn3)CC2)C2CCOCC2)cc1 [Example 17, (−)-3-(2,4-Dimethyl-9-{4-[(S)-2-oxo-2-(4-pyridin-2-ylpiperazin-1-yl)-1-(tetrahydro-2H-pyran-4-yl)ethyl]benzyl}-9H-pyrido[2,3-b]indol-3-yl)propanoic acid] |  |  | 86% | 85% |  |  |  |  | 4.8 nM | 0.14 mg/kg | 0.74 mg/kg | 0.39 mg/kg |
| Cc1nc2c(c(C)c1CCC(=O)O)c1ccccc1n2Cc1ccc([C@@H](C(=O)NCc2ccccc2)C2CCOCC2)cc1 [Example 19, (−)-3-(9-{4-[(S)-(benzylcarbamoyl)(tetrahydro-2H-pyran-4-yl)methyl]benzyl}-2,4-dimethyl-9H-pyrido[2,3-b]indol-3-yl)propanoic acid] |  |  | 91% | 95% |  |  |  |  | 1.7 nM | 0.059 mg/kg | 0.17 mg/kg | 0.24 mg/kg |
| CCCCCN1CCN(C(=O)[C@H](c2ccc(Cn3c4ccccc4c4c(C)c(CCC(=O)O)c(C)nc43)cc2)C2CCOCC2)CC1 [Example 50] | 3.2 nM | 0.19 mg/kg | 94% | 90% | 0.48 mg/kg | 0.41 mg/kg |  |  |  |  |  |  |
| COCCCN1CCN(C(=O)[C@H](c2ccc(Cn3c4ccccc4c4c(C)c(CCC(=O)O)c(C)nc43)cc2)C2CCOCC2)CC1 [Example 56] | 7.2 nM | 1.1 mg/kg | 41% | 63% | 0.9 mg/kg | 1.3 mg/kg |  |  |  |  |  |  |
| Cc1nc2c(c(C)c1CCC(=O)O)c1ccccc1n2Cc1ccc([C@@H](C(=O)N(C)C)C2CCOCC2)cc1 [Example 37, 3-(2,4-dimethyl-9-{4-[(S)-(dimethylcarbamoyl)(tetrahydro-2H-pyran-4-yl)methyl]benzyl}-9H-pyrido[2,3-b]indol-3-yl)propanoic acid] |  |  | 57% | 62% |  |  |  |  | 29 nM |  | 0.71 mg/kg | 0.71 mg/kg |
| Cc1nc2c(c(C)c1CCC(=O)O)c1ccccc1n2Cc1ccc([C@@H](C(=O)N2CCC(c3ccccc3)CC2)C2CCOCC2)cc1 [Example 45] | 28 nM | 0.41 mg/kg | 92% | 86% |  |  |  |  |  |  |  |  |
| Cc1nc2c(c(C)c1CCC(=O)O)c1cc(F)ccc1n2Cc1ccc([C@@H](C(=O)NCc2ccccc2)C2CCOCC2)cc1 [Example 23] |  | 0.063 mg/kg | 96% | 91% | 0.27 mg/kg | 0.19 mg/kg |  |  |  |  |  |  |
| CCCN1CCN(C(=O)[C@H](c2ccc(Cn3c4ccccc4c4c(C)c(CCC(=O)O)c(C)nc43)cc2)C2CCOCC2)CC1 [Example 18, (+)-3-(2,4-Dimethyl-9-{4-[(S)-2-oxo-2-(4-propylpiperazin-1-yl)-1-(tetrahydro-2H-pyran-4-yl)ethyl]benzyl}-9H-pyrido[2,3-b]indol-3-yl)propanoic acid] |  |  | 87% | 85% |  |  |  |  | 3 nM | 0.2 mg/kg | 0.5 mg/kg | 0.52 mg/kg |
